According to ChEMBL document CHEMBL4400573, “Synthesis and structure-activity relationships of pyrazine-2-carboxamide derivatives as novel echinoderm microtubule-associated protein-like 4 (EML4)-anaplastic lymphoma kinase (ALK) inhibitors” (Bioorg Med Chem, 2019):
≈ marks a conversion by molar mass, not a printed value.

Key:
[1] = Inhibition of EML4-fused ALK variant 1 (unknown origin) expressed in mouse BAF3 cells using peptide substrate measured after 1 hr by HTRF assay; format: cell-based, Homo sapiens
BaF3 = assay: Antiproliferative activity against mouse BAF3 cells expressing EML4-fused ALK variant 1 assessed as reduction in cell viability measured after 2 days by alamar blue assay; format: functional, cell-based; details: BaF3, 48 h
[2] = Permeability of the compound at pH 6.5 measured after 2 hrs by PAMPA; format: ADME; details: read-out: permeability
[3] = Toxicity in Balb/c nude mouse xenografted with mouse 3T3 cells expressing EML4-fused ALK variant 1 assessed as effect on body weight at 10 mg/kg, po administered once daily for 5 days; format: organism-based; details: in vivo, 120 h
NIH3T3 [4] = assay: Antitumor activity against mouse 3T3 cells expressing EML4-fused ALK variant 1 xenografted in Balb/c nude mouse assessed as tumor regression at 10 mg/kg, po administered once daily for 5 days measured post last dose relative to control; format: functional
[5] = Aqueous solubility of the compound in pH 6.8 JP2 fluid measured after 20 hrs by HPLC analysis; format: physicochemical
NIH3T3 [6] = assay: Antitumor activity against mouse 3T3 cells expressing EML4-fused ALK variant 1 xenografted in Balb/c nude mouse assessed as tumor growth inhibition at 10 mg/kg, po administered once daily for 5 days measured post last dose relative to control; format: functional; set-up: Activity: scale not given: the % may be the effect or the level left

SMILES	IC50 [1] [nM]	IC50 (BaF3) [nM]	further results
CS(=O)(=O)c1cccc(Nc2nc(N[C@H]3CC[C@H](O)CC3)c(Cl)nc2C(N)=O)c1	82	–	–
CS(=O)(=O)c1cccc(Nc2nc(N[C@H]3CC[C@H](O)CC3)c(Br)nc2C(N)=O)c1	82	–	–
CCNc1nc(Nc2ccc(N3CCC(N4CCN(C)CC4)CC3)c(OC)c2)c(C(N)=O)nc1CC	2.5	16	–
CCc1nc(C(N)=O)c(Nc2ccc(N3CCC(N4CCN(C)CC4)CC3)c(OC)c2)nc1N[C@H]1CC[C@H](OC)CC1	1	9.7	Papp at 2 h [2]: 21 ×10⁻⁶ cm/s; Activity [3]: Toxic; Activity (NIH3T3 [4]): 62%
Cc1nc(C(N)=O)c(Nc2cccc(S(C)(=O)=O)c2)nc1N[C@H]1CC[C@H](O)CC1	51	–	–
CS(=O)(=O)c1cccc(Nc2nc(N[C@H]3CC[C@H](O)CC3)c(C3CC3)nc2C(N)=O)c1	37	–	–
CCc1nc(C(N)=O)c(Nc2cccc(S(C)(=O)=O)c2)nc1N[C@H]1CC[C@H](O)CC1	17	68	solubility at 20 h [5]: 1.1 µM (≈ 0.477 µg/mL)
COc1cc(N2CCC(N3CCN(C)CC3)CC2)ccc1Nc1ncnc(Nc2ccccc2S(=O)(=O)C(C)C)n1 [ASP-3026]	17	–	Activity [3]: Non-Toxic; inhibition in vivo at 10 mg/kg (NIH3T3 [6]; Mus musculus, NIH3T3, po, 120 h, read-out: TGI): 81%
CCc1nc(C(N)=O)c(Nc2ccc(N3CCC(N4CCN(C)CC4)CC3)c(OC)c2)nc1N[C@@H]1CCCC[C@H]1O (racemic)	13	48	–
CCc1nc(C(N)=O)c(Nc2ccc(N3CCC(N4CCN(C)CC4)CC3)c(OC)c2)nc1N[C@H]1CC[C@H](O)CC1	0.37	9.5	Papp at 2 h [2]: 1.1 ×10⁻⁶ cm/s; solubility at 20 h [5]: ≥ 100 µM; Activity [3]: Toxic; Activity (NIH3T3 [6]): 34%
CCc1nc(C(N)=O)c(Nc2ccc(N3CCC(N4CCN(C)CC4)CC3)cc2OC)nc1N[C@H]1CC[C@H](O)CC1	8.9	85	solubility at 20 h [5]: ≥ 100 µM
CS(=O)(=O)c1cccc(Nc2nc(N[C@H]3CC[C@H](O)CC3)cnc2C(N)=O)c1	270	–	–
CCc1nc(C(N)=O)c(Nc2ccc(N3CCC(N4CCN(C)CC4)CC3)c(OC)c2)nc1N(C)CC	6.6	31	–
CCc1nc(C(N)=O)c(Nc2ccc(N3CCC(N4CCN(C)CC4)CC3)c(OC)c2)nc1NC(C)C	0.8	12	–
CCCc1nc(C(N)=O)c(Nc2cccc(S(C)(=O)=O)c2)nc1N[C@H]1CC[C@H](O)CC1	23	–	–
